Common to all, as to assay type: cell-based
The subject of one experiment is MOLM-13 cells. Put plainly: MOLM-13 cell viability assay (CellTiter-Glo). The conditions noted are these: Homo sapiens, MOLM-13, 72 h, 3 days, read-out: MOLM-13 Cell Viability % DMSO at 1 μM. How it is done:
MOLM-13 cells were cultured in RPMI 1640 media supplemented with 10% fetal bovine serum, streptomycin and penicillin, and were plated in walled 96-well plates at 2500 cells/well. Cells were incubated in DMSO (control) or the indicated compound for 3 days at 37° C. and 5% CO2. Following the incubation period, 100 μL of CellTiterGlow (CTG) reagent (CellTiter-Glo® Luminescent Cell Viability Assay, Promega (Madison, Wis.)) was added to each well. Following a 10 minutes incubation with shaking, luminescence was measured using the EnVision Multimode plate reader.
The MOLM-13 cell viability values as % DMSO are reported as “A”, “B”, “C”, or “D”. “A” represents a % viability value of less than 50% (value <50%). “B” represents a % viability value of equal to or more than 50% and less than 70% (50%≤value<70%). “C” represents a % viability value of equal to or more than 70% and less than 90% (70%≤value<90%). “D” represents a % viability value of equal or more than 90% (value ≥90%).

A further experiment deals with T1, CDK9 (Homo sapiens, UniProt P50750).
T1 construct: Whole cell extracts were prepared using RIPA buffer; endogenous in cells; host or cells: MV-4-11
T1 sequence (P50750 whole entry): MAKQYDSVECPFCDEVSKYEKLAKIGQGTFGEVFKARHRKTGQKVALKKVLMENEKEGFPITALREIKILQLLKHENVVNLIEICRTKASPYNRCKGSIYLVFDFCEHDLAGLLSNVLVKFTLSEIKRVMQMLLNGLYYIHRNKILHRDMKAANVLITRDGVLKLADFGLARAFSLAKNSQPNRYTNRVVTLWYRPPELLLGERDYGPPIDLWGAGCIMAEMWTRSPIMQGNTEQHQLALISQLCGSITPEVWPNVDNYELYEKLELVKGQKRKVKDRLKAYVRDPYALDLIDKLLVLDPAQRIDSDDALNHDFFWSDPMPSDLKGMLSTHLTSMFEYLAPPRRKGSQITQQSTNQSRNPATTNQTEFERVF
Put plainly: CDK9 degradation assay (Western blot, MV-4-11 cells). To be noted: 6-8 h; for Dmax at 0.1 µM: MV4-11, 0.1 μM; for Dmax at 1 µM: MV4-11, 1 μM. Here is the method: (§1) MV-4-11 cells were grown in RPMI 1640 media supplemented with 10% fetal bovine serum, streptomycin and penicillin.
(§2) Cells were cultured at approximately 10^6 cells per mL and incubated in DMSO or the indicated compound for 6-8 h. Whole cell extracts were prepared using RIPA buffer according to manufacturer's protocol (Pierce). Briefly, 3×10^6 cells were washed once in PBS, the cell pellets were resuspended in RIPA buffer and allowed to incubate for 15 minutes on ice. Cells debris was removed by centrifugation and the cleared whole cell lysates were transferred to new tubes for further analysis.
(§3) For Western blot analysis, whole cell protein extracts were separated on 4-12% SDS-polyacrylamide gels, transferred to nitrocellulose and probed with the indicated primary antibodies. Membranes were subsequently washed and probed with the appropriate IRDye secondary antibodies (LI-COR). The signal was detected using the Odyssey Imaging System (LI-COR).
(§4) The following antibodies were used in these studies: Anti-eRF3/GSPT1: Abcam, ab126090 (Cambridge, Mass.); Anti-Ikaros: Abcam, ab191394 (Cambridge, Mass.); Anti-CK1α: Abcam, ab108296 (Cambridge, Mass.); Anti-CDK9: Santa Cruz Biotechnology, sc13130 (Dallas, Tex.); Anti-CDK16: Millipore Sigma, HPA001366 (St. Louis, Mo.); 3-actin (8H10comD10) mouse monoclonal antibody: Cell Signaling Technology, #3700 (Danvers, Mass.); IRDye 680RD Goat anti-rabbit antibody: LI-COR, 926-68071 (Lincoln, Nebr.); IRDye 800CW Goat anti-mouse antibody: LI-COR, 926-32210 (Lincoln, Nebr.).
(§5) CDK9 activities are shown in Table 4 at two different concentrations. CDK16 activities are shown in Table 5 at two different concentrations. In each of Tables 1-5, the % degradation values are reported as “A”, “B”, “C”, or “D”. “A” represents a % degradation value of less than 25% (value <25%). “B” represents a % degradation value of equal to or more than 25% and less than 50% (25%≤value<50%). “C” represents a % degradation value of equal to or more than 50% and less than 75% (50%≤value<75%). “D” represents a % degradation value of equal to or more than 75% (value ≥75%).
(Immunoblotting shows a protein as a band on a membrane.)

In a further experiment the target is T2, CDK16 (Homo sapiens, UniProt Q00536).
T2 construct: Whole cell extracts were prepared using RIPA buffer; endogenous in cells; host or cells: MV-4-11
T2 sequence (Q00536 whole entry): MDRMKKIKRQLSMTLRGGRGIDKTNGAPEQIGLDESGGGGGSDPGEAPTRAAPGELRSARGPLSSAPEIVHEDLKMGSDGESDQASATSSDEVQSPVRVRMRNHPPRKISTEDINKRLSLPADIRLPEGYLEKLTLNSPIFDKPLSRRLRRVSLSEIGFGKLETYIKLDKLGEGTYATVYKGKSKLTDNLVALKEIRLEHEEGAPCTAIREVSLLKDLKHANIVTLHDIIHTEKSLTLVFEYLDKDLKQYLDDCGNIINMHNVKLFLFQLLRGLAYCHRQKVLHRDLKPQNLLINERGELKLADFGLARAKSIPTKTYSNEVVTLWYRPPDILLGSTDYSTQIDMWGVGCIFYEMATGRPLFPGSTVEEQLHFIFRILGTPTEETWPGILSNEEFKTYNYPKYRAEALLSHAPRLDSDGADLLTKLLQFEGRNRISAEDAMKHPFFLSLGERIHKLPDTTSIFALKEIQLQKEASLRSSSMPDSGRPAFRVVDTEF
Put plainly: CDK16 degradation assay (Western blot, MV-4-11 cells). The conditions noted are these: 6-8 h; for Dmax at 0.1 µM: MV4-11, 0.1 μM; for Dmax at 1 µM: MV4-11, 1 μM. How it is done: as §1, §2, §3, §4, §5

Molecules are shown by their SMILES.

With `CC(C)(C)c1cnc(CSc2cnc(NC(=O)C3CCN(CC(=O)NCCCCCNC(=O)NCc4cc5c(s4)C(=O)N(C4CCC(=O)NC4=O)C5)CC3)s2)o1` (centres unmarked) [Compound 1, 3-[8-Oxo-3-({3-[5-(2-{4-[(5-{[5-(tert-butyl)-1,3-oxazol-2-yl]methylthio}-1,3-thiazol-2-ylamino)carbonyl]-1-piperidyl}acetylamino)pentyl]ureido}methyl)-2-thia-7-azabicyclo[3.3.0]octa-1(5),3-dien-7-yl]-2,6-piperidinedione], in the experiment on MOLM-13 cells, the viability at 1 µM is > 90%.
As for `CC(C)(C)c1cnc(CSc2cnc(NC(=O)C3CCN(CC(=O)NCCCNC(=O)NCc4cc5c(s4)C(=O)N(C4CCC(=O)NC4=O)C5)CC3)s2)o1` (centres unmarked) [Compound 12, N-(5-(((5-(tert-butyl)oxazol-2-yl)methyl)thio)thiazol-2-yl)-1-(2-((3-(3-((5-(2,6-dioxopiperidin-3-yl)-6-oxo-5,6-dihydro-4H-thieno[2,3-c]pyrrol-2-yl)methyl)ureido)propyl)amino)-2-oxoethyl)piperidine-4-carboxamide], at CDK9, the Dmax at 0.1 µM is ≥ 75% and the Dmax at 1 µM is ≥ 75%. At CDK16, this compound showed a maximal degradation (Dmax) at 0.1 µM of 25 to 50% and a Dmax at 1 µM of 25 to 50%. The viability at 1 µM in the experiment on MOLM-13 cells was > 90%.
As for `CN(CCNC(=O)CN1CCC(C(=O)Nc2ncc(SCc3ncc(C(C)(C)C)o3)s2)CC1)CCNC(=O)NCc1cc2c(s1)C(=O)N(C1CCC(=O)NC1=O)C2` (centres unmarked) [Compound 15, N-(5-(((5-(tert-butyl)oxazol-2-yl)methyl)thio)thiazol-2-yl)-1-(1-(5-(2,6-dioxopiperidin-3-yl)-6-oxo-5,6-dihydro-4H-thieno[2,3-c]pyrrol-2-yl)-7-methyl-3,11-dioxo-2,4,7,10-tetraazadodecan-12-yl)piperidine-4-carboxamide], on CDK9, the Dmax at 0.1 µM was in the range of 50 to 75% and the greatest degradation seen (Dmax) at 1 µM was ≥ 75%. On CDK16, the Dmax at 0.1 µM is < 25% and the greatest degradation seen (Dmax) at 1 µM was < 25%. In addition, the viability at 1 µM in the experiment on MOLM-13 cells fell in the range of 70 to 90%.
As for `Cn1ncc(-c2nc(N[C@H]3CC[C@H](NCC(=O)NCCCCCNC(=O)NCc4cc5c(s4)C(=O)N(C4CCC(=O)NC4=O)C5)CC3)ncc2Cl)c1CC1CC1` (some centres unmarked) [Compound 16, 2-(((1r,4r)-4-((5-chloro-4-(5-(cyclopropylmethyl)-1-methyl-1H-pyrazol-4-yl)pyrimidin-2-yl)amino)cyclohexyl)amino)-N-(5-(3-((5-(2,6-dioxopiperidin-3-yl)-6-oxo-5,6-dihydro-4H-thieno[2,3-c]pyrrol-2-yl)methyl)ureido)pentyl)acetamide], at CDK9, the greatest degradation seen (Dmax) at 0.1 µM lay within 50 to 75% and the Dmax at 1 µM was ≥ 75%. At CDK16, the Dmax at 0.1 µM was ≥ 75% and the Dmax at 1 µM is ≥ 75%. In the experiment on MOLM-13 cells, the viability at 1 µM was > 90%.
With `Cn1ncc(-c2nc(N[C@H]3CC[C@H](NCC(=O)NCCCCCNC(=O)NCc4cc5c(s4)C(=O)N(C4CCC(=O)NC4=O)C5)CC3)ncc2F)c1CC1CC1` (some centres unmarked) [Compound 17, 2-(((1r,4r)-4-((4-(5-(cyclopropylmethyl)-1-methyl-1H-pyrazol-4-yl)-5-fluoropyrimidin-2-yl)amino)cyclohexyl)amino)-N-(5-(3-((5-(2,6-dioxopiperidin-3-yl)-6-oxo-5,6-dihydro-4H-thieno[2,3-c]pyrrol-2-yl)methyl)ureido)pentyl)acetamide], the greatest degradation seen (Dmax) at 0.1 µM on CDK9 and at CDK16 was 50 to 75% in each case. Also, the Dmax at 1 µM was ≥ 75% at CDK9 and 50 to 75% on CDK16.
In the case of `Cn1ncc(-c2nc(N[C@H]3CC[C@H](NCCCCCCCCNC(=O)NCc4cc5c(s4)C(=O)N(C4CCC(=O)NC4=O)C5)CC3)ncc2F)c1CC1CC1` (some centres unmarked) [Compound 23, 1-(8-(((1r,4r)-4-((4-(5-(cyclopropylmethyl)-1-methyl-1H-pyrazol-4-yl)-5-fluoropyrimidin-2-yl)amino)cyclohexyl)amino)octyl)-3-((5-(2,6-dioxopiperidin-3-yl)-6-oxo-5,6-dihydro-4H-thieno[2,3-c]pyrrol-2-yl)methyl)urea], on CDK9, the Dmax at 0.1 µM is ≥ 75% and the maximal degradation (Dmax) at 1 µM is ≥ 75%. Also, at CDK16, the greatest degradation seen (Dmax) at 0.1 µM is 50 to 75% and the greatest degradation seen (Dmax) at 1 µM is ≥ 75%. Further, the viability at 1 µM in the experiment with MOLM-13 cells is > 90%.
Regarding `Cn1ncc(-c2nc(N[C@H]3CC[C@H](NCC(=O)NCCCCCNCC(=O)NCc4scc5c4CN(C4CCC(=O)NC4=O)C5=O)CC3)ncc2Cl)c1CC1CC1` (some centres unmarked) [Compound 31, 2-(((1r,4r)-4-((5-chloro-4-(5-(cyclopropylmethyl)-1-methyl-1H-pyrazol-4-yl)pyrimidin-2-yl)amino)cyclohexyl)amino)-N-(5-((2-(((5-(2,6-dioxopiperidin-3-yl)-4-oxo-5,6-dihydro-4H-thieno[3,4-c]pyrrol-1-yl)methyl)amino)-2-oxoethyl)amino)pentyl)acetamide], on CDK9, the greatest degradation seen (Dmax) at 0.1 µM lay in the range of 25 to 50% and the Dmax at 1 µM was ≥ 75%. Further, at CDK16, the Dmax at 0.1 µM fell in the range of 25 to 50% and the greatest degradation seen (Dmax) at 1 µM is ≥ 75%. In the experiment with MOLM-13 cells, the viability at 1 µM was > 90%.
For the compound `CN(CCNCC(=O)NCc1cc2c(s1)C(=O)N(C1CCC(=O)NC1=O)C2)CCNC(=O)CN1CCC(C(=O)Nc2ncc(SCc3ncc(C(C)(C)C)o3)s2)CC1` (centres unmarked) [Compound 47, N-(5-(((5-(tert-butyl)oxazol-2-yl)methyl)thio)thiazol-2-yl)-1-(1-(5-(2,6-dioxopiperidin-3-yl)-6-oxo-5,6-dihydro-4H-thieno[2,3-c]pyrrol-2-yl)-8-methyl-3,12-dioxo-2,5,8,11-tetraazatridecan-13-yl)piperidine-4-carboxamide], the viability at 1 µM in the experiment with MOLM-13 cells lay within 70 to 90%.
With `Cn1ncc(-c2nc(N[C@H]3CC[C@H](NCC(=O)NCCCCNCC(=O)NCc4scc5c4C(=O)N(C4CCC(=O)NC4=O)C5=O)CC3)ncc2F)c1CC1CC1` (some centres unmarked) [Compound 48, 2-(((1r,4r)-4-((4-(5-(cyclopropylmethyl)-1-methyl-1H-pyrazol-4-yl)-5-fluoropyrimidin-2-yl)amino)cyclohexyl)amino)-N-(4-((2-(((5-(2,6-dioxopiperidin-3-yl)-4,6-dioxo-5,6-dihydro-4H-thieno[3,4-c]pyrrol-1-yl)methyl)amino)-2-oxoethyl)amino)butyl)acetamide], in the experiment on MOLM-13 cells, the viability at 1 µM was > 90%.
Regarding `Cn1ncc(-c2nc(N[C@H]3CC[C@H](NCCCCCCCNCC(=O)NCc4cc5c(s4)C(=O)N(C4CCC(=O)NC4=O)C5)CC3)ncc2Cl)c1CC1CC1` (some centres unmarked) [Compound 53, 2-((7-(((1r,4r)-4-((5-chloro-4-(5-(cyclopropylmethyl)-1-methyl-1H-pyrazol-4-yl)pyrimidin-2-yl)amino)cyclohexyl)amino)heptyl)amino)-N-((5-(2,6-dioxopiperidin-3-yl)-6-oxo-5,6-dihydro-4H-thieno[2,3-c]pyrrol-2-yl)methyl)acetamide], in the experiment with MOLM-13 cells, the viability at 1 µM was > 90%.
Same read-out and setting: in the case of `Cn1ncc(-c2nc(N[C@H]3CC[C@H](NCCCCCNCC(=O)NCc4cc5c(s4)C(=O)N(C4CCC(=O)NC4=O)C5)CC3)ncc2Cl)c1CC1CC1` (some centres unmarked) [Compound 60, 2-((5-(((1r,4r)-4-((5-chloro-4-(5-(cyclopropylmethyl)-1-methyl-1H-pyrazol-4-yl)pyrimidin-2-yl)amino)cyclohexyl)amino)pentyl)amino)-N-((5-(2,6-dioxopiperidin-3-yl)-6-oxo-5,6-dihydro-4H-thieno[2,3-c]pyrrol-2-yl)methyl)acetamide] it was > 90%; in that of `Cn1ncc(-c2nc(N[C@H]3CC[C@H](NCC(=O)NCCOCCOCCOCCNCc4cc5c(s4)C(=O)N(C4CCC(=O)NC4=O)C5)CC3)ncc2F)c1CC1CC1` (some centres unmarked) [Compound 62, 2-(((1r,4r)-4-((4-(5-(cyclopropylmethyl)-1-methyl-1H-pyrazol-4-yl)-5-fluoropyrimidin-2-yl)amino)cyclohexyl)amino)-N-(1-(5-(2,6-dioxopiperidin-3-yl)-6-oxo-5,6-dihydro-4H-thieno[2,3-c]pyrrol-2-yl)-5,8,11-trioxa-2-azatridecan-13-yl)acetamide], > 90%.

One may read the viability as the share of living cells, or the viability signal relative to a control. Broadly, the Dmax is the largest share of the target that was removed. The low end stands for shallow degradation, the high end for deep degradation.
